Laboratory results: article PMC11995724, “Antibiotic target discovery by integrated phenotypic and activity-based profiling of electrophilic fragments” (Cell chemical biology, 2025)

Experiment: in vitro
Details: human, hek293t cells

Structure (SMILES)	viability at 48 h, 25 µM [%]
C=CC(=O)NCc1nnc(C2CCOCC2)[nH]1 [2-M22, N-{[5-(oxan-4-yl)-4H-1,2,4-triazol-3-yl]methyl}prop-2-enamide]	93.3
C=CC(=O)NCc1nc2ccccc2n1C1CC1 [2-N03, N-[(1-cyclopropyl-1H-1,3-benzodiazol-2-yl)methyl]prop-2-enamide]	69.4
C=CC(=O)N(C)CC(=O)N1CCC(c2nc3c(s2)CCCC3)CC1 [2-N04, N-methyl-N-{2-oxo-2-[4-(4,5,6,7-tetrahydro-1,3-benzothiazol-2-yl)piperidin-1-yl]ethyl}prop-2-enamide]	92.5
C=CC(=O)NCCCn1ccnc1C#N [2-N05, N-[3-(2-cyano-1H-imidazol-1-yl)propyl]prop-2-enamide]	76.3
C=CC(=O)N(CC)CC(=O)NC1CCN(C(C)=O)c2ccccc21 (stereo not shown) [2-N06, N-{[(1-acetyl-1,2,3,4-tetrahydroquinolin-4-yl)carbamoyl]methyl}-N-ethylprop-2-enamide]	99.7
C=CC(=O)NC(c1nccs1)C(F)(F)F (stereo not shown) [2-N07, N-[2,2,2-trifluoro-1-(1,3-thiazol-2-yl)ethyl]prop-2-enamide]	84.1
C=CC(=O)N(C)CC(=O)N1CCc2ccc(S(C)(=O)=O)cc2CC1 [2-N08, N-[2-(7-methanesulfonyl-2,3,4,5-tetrahydro-1H-3-benzazepin-3-yl)-2-oxoethyl]-N-methylprop-2-enamide]	95.1
C=CC(=O)NC(c1ccc(F)cc1)c1nccn1C (stereo not shown) [2-N09, N-[(4-fluorophenyl)(1-methyl-1H-imidazol-2-yl)methyl]prop-2-enamide]	45.3
C=CC(=O)N(C)CC(=O)N1CCN(c2nsc3ccccc23)CC1 [2-N10, N-{2-[4-(1,2-benzothiazol-3-yl)piperazin-1-yl]-2-oxoethyl}-N-methylprop-2-enamide]	1.45
C=CC(=O)NCCn1nnc2ccccc21 [2-N11, N-[2-(1H-1,2,3-benzotriazol-1-yl)ethyl]prop-2-enamide]	67.3
C=CC(=O)N(CC)CC(=O)N1CCCC1c1cn(C)nc1C (stereo not shown) [2-N12, N-{2-[2-(1,3-dimethyl-1H-pyrazol-4-yl)pyrrolidin-1-yl]-2-oxoethyl}-N-ethylprop-2-enamide]	85.2
C=CC(=O)NCCCc1conc1C [2-N13, N-[3-(3-methyl-1,2-oxazol-4-yl)propyl]prop-2-enamide]	70.3
C=CC(=O)N(C)CC(=O)NC1CCN(C(=O)c2ccc(C)cc2)CC1 [2-N14, N-methyl-N-({[1-(4-methylbenzoyl)piperidin-4-yl]carbamoyl}methyl)prop-2-enamide]	66.3
C=CC(=O)NCCn1cnc2ccsc2c1=O [2-N15, N-(2-{4-oxo-3H,4H-thieno[3,2-d]pyrimidin-3-yl}ethyl)prop-2-enamide]	66
C=CC(=O)N1CCC(C(=O)N2CCCC(c3cnn(C)c3)C2)CC1 (stereo not shown) [2-N16, 1-{4-[3-(1-methyl-1H-pyrazol-4-yl)piperidine-1-carbonyl]piperidin-1-yl}prop-2-en-1-one]	99.6
C=CC(=O)N(C)Cc1noc(C2CC2)n1 [2-N17, N-[(5-cyclopropyl-1,2,4-oxadiazol-3-yl)methyl]-N-methylprop-2-enamide]	60.3
C=CC(=O)Nc1ccc(C(=O)N2CCCCC2CS(C)(=O)=O)cc1 (stereo not shown) [2-N18, N-{4-[2-(methanesulfonylmethyl)piperidine-1-carbonyl]phenyl}prop-2-enamide]	102
C=CC(=O)NCc1ncccc1-n1cccn1 [2-N19, N-{[3-(1H-pyrazol-1-yl)pyridin-2-yl]methyl}prop-2-enamide]	70.3
C=CC(=O)N1CCC(C(=O)N2CCCCCC2c2ccco2)CC1 (stereo not shown) [2-N20, 1-{4-[2-(furan-2-yl)azepane-1-carbonyl]piperidin-1-yl}prop-2-en-1-one]	80.3
C=CC(=O)N1CSCC1C(=O)N1CCOCC1 (stereo not shown) [2-N21, 1-[4-(morpholine-4-carbonyl)-1,3-thiazolidin-3-yl]prop-2-en-1-one]	74.9
C=CC(=O)N(C)CC(=O)N1CCC2(CC1)CC2c1nnc(C(C)C)o1 (stereo not shown) [2-N22, N-methyl-N-(2-oxo-2-{1-[5-(propan-2-yl)-1,3,4-oxadiazol-2-yl]-6-azaspiro[2.5]octan-6-yl}ethyl)prop-2-enamide]	84.6
C=CC(=O)NCCc1ccccc1OC [2-O03, N-[2-(2-methoxyphenyl)ethyl]prop-2-enamide]	105
C=CC(=O)N1CCC(c2nc(C3CCC3)no2)CC1 [2-O04, 1-[4-(3-cyclobutyl-1,2,4-oxadiazol-5-yl)piperidin-1-yl]prop-2-en-1-one]	84.1
C=CC(=O)N(Cc1ccc2cnn(C)c2c1)CC(C)(C)C [2-O05, N-(2,2-dimethylpropyl)-N-[(1-methyl-1H-indazol-6-yl)methyl]prop-2-enamide]	102
C=CC(=O)NCCNC(=O)C1CC12CCSCC2 (stereo not shown) [2-O06, N-[2-({6-thiaspiro[2.5]octan-1-yl}formamido)ethyl]prop-2-enamide]	88.3
C=CC(=O)Nc1ccnn1C(C)C [2-O07, N-[1-(propan-2-yl)-1H-pyrazol-5-yl]prop-2-enamide]	101

Structure (SMILES)	viability at 48 h, 25 µM [%]
C=CC(=O)NCCC(=O)NC1CCCCC12OCCO2 (stereo not shown) [2-O08, N-[2-({1,4-dioxaspiro[4.5]decan-6-yl}carbamoyl)ethyl]prop-2-enamide]	106
C=CC(=O)N(CC)Cc1cn(C)nn1 [2-O09, N-ethyl-N-[(1-methyl-1H-1,2,3-triazol-4-yl)methyl]prop-2-enamide]	105
C=CC(=O)N1CCC(Cc2ccccc2)CC1 [2-O10, 1-(4-benzylpiperidin-1-yl)prop-2-en-1-one]	73
C=CC(=O)NCc1ccccc1CN1C(=O)NC2(CCCCC2)C1=O [2-O11, N-{[2-({2,4-dioxo-1,3-diazaspiro[4.5]decan-3-yl}methyl)phenyl]methyl}prop-2-enamide]	71
C=CC(=O)Nc1cccc(C(F)(F)CF)c1 [2-O12, N-[3-(1,1,2-trifluoroethyl)phenyl]prop-2-enamide]	98.8
C=CC(=O)NCC1CCC2(CCCOC2)O1 (stereo not shown) [2-O13, N-({1,7-dioxaspiro[4.5]decan-2-yl}methyl)prop-2-enamide]	168
C=CC(=O)Nc1cnc(S(C)(=O)=O)c(C)c1 [2-O14, N-(6-methanesulfonyl-5-methylpyridin-3-yl)prop-2-enamide]	99.6
C=CC(=O)N(C)Cc1conc1CC [2-O15, N-[(3-ethyl-1,2-oxazol-4-yl)methyl]-N-methylprop-2-enamide]	187
C=CC(=O)N1CCOCC1c1cc(F)cc(F)c1 (stereo not shown) [2-O16, 1-[3-(3,5-difluorophenyl)morpholin-4-yl]prop-2-en-1-one]	81.8
C=CC(=O)NCCc1ccnn1C [2-O17, N-[2-(1-methyl-1H-pyrazol-5-yl)ethyl]prop-2-enamide]	178
C=CC(=O)N(C)c1ccccc1C(=O)NC [2-O18, N-methyl-2-(N-methylprop-2-enamido)benzamide]	114
C=CC(=O)N1CCC(CC(C)(C)C)C1 (stereo not shown) [2-O19, 1-[3-(2,2-dimethylpropyl)pyrrolidin-1-yl]prop-2-en-1-one]	147
C=CC(=O)NCC1(c2ccccc2)CC1(F)F (stereo not shown) [2-O20, N-[(2,2-difluoro-1-phenylcyclopropyl)methyl]prop-2-enamide]	113
C=CC(=O)Nc1ccc(C(=O)N2C[C@H](O)C[C@H]2C(=O)OC)cc1 [2-O21, methyl (2S,4R)-4-hydroxy-1-[4-(prop-2-enamido)benzoyl]pyrrolidine-2-carboxylate]	145
C=CC(=O)NC1CC(=O)N(CC)C1 (stereo not shown) [2-O22, N-(1-ethyl-5-oxopyrrolidin-3-yl)prop-2-enamide]	91.7
C=CC(=O)NCCc1ccn(-c2ccc(F)cc2)n1 [2-P03, N-{2-[1-(4-fluorophenyl)-1H-pyrazol-3-yl]ethyl}prop-2-enamide]	70.4
C=CC(=O)N1CCC(C(=O)N(C)C(C)c2sc(CC)nc2C)CC1 (stereo not shown) [2-P04, N-[1-(2-ethyl-4-methyl-1,3-thiazol-5-yl)ethyl]-N-methyl-1-(prop-2-enoyl)piperidine-4-carboxamide]	95.1
C=CC(=O)NC(C)C1(S(C)(=O)=O)CC1 (stereo not shown) [2-P05, N-[1-(1-methanesulfonylcyclopropyl)ethyl]prop-2-enamide]	84.3
C=CC(=O)N1CCC(C(=O)N2CCCC(O)C2)(c2ccccc2)CC1 (stereo not shown) [2-P06, 1-[4-(3-hydroxypiperidine-1-carbonyl)-4-phenylpiperidin-1-yl]prop-2-en-1-one]	93.3
C=CC(=O)NCCN1C(=O)COc2ccccc21 [2-P07, N-[2-(3-oxo-3,4-dihydro-2H-1,4-benzoxazin-4-yl)ethyl]prop-2-enamide]	60.4
C=CC(=O)NCc1ccc(C(=O)N2CCC(c3nc(C)no3)C2)cc1 (stereo not shown) [2-P08, N-({4-[3-(3-methyl-1,2,4-oxadiazol-5-yl)pyrrolidine-1-carbonyl]phenyl}methyl)prop-2-enamide]	52.5
C=CC(=O)NCC1OCCc2sc(F)cc21 (stereo not shown) [2-P09, N-({2-fluoro-4H,6H,7H-thieno[3,2-c]pyran-4-yl}methyl)prop-2-enamide]	72.3
C=CC(=O)N1CCC(C(=O)N2CCCCC(SCC)C2)CC1 (stereo not shown) [2-P10, 1-{4-[3-(ethylsulfanyl)azepane-1-carbonyl]piperidin-1-yl}prop-2-en-1-one]	108
C=CC(=O)NCCCn1cnc2ccccc21 [2-P11, N-[3-(1H-1,3-benzodiazol-1-yl)propyl]prop-2-enamide]	62
C=CC(=O)N1CCC(C(=O)N(C)C2CCCc3c2cnn3C)CC1 (stereo not shown) [2-P12, N-methyl-N-(1-methyl-4,5,6,7-tetrahydro-1H-indazol-4-yl)-1-(prop-2-enoyl)piperidine-4-carboxamide]	78.2
C=CC(=O)NCc1nc(C2CC2)oc1C [2-P13, N-[(2-cyclopropyl-5-methyl-1,3-oxazol-4-yl)methyl]prop-2-enamide]	52.6
